Read-outs that look alike come from different tables or passages of the source.
Legend:
Format in all cases: biochemical
amyloid-beta (Aβ) [1] = biological target: T1, amyloid-beta (Aβ) (Homo sapiens, UniProt P05067); assay: ThT fluorescence fibrillization assay at […]; no inhibition of Aβ oligomerization; design: gene APP; Aβ1-40; conditions: read-out: Aβ fibril inhibition (%)
Target sequence in this assay (P05067 672-711): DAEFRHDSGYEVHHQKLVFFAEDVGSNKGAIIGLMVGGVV

amyloid-beta (Aβ) [2] = biological target: T1, amyloid-beta (Aβ); assay: Aβ oligomerization ELISA (biotinylated Aβ[…]-42); also ThT fibrillization, […] inhibition at […]; design: gene APP; biotinylated Aβ1-42 (oligomerization); Aβ1-40 (fibrillization)
Target sequence in this assay (P05067 672-713): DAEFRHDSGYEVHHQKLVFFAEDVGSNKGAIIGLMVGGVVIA

amyloid-beta (Aβ) [3] = biological target: T1, amyloid-beta (Aβ); assay: as above; design: gene APP; biotinylated Aβ1-42 (oligomerization); Aβ1-40 (fibrillization); remark: listed apart in the source
Target sequence in this assay (P05067 672-713): as above

tau (tau40) = biological target: T2, tau (tau40) (Homo sapiens, UniProt P10636); assay: ThS fluorescence fibrillization assay (heparin-containing buffer); […] inhibition at […], […] at […]; conditions: read-out: Tau fibril inhibition (%)
T2 construct: gene MAPT; Human tau40, tag-free, expressed in E. coli
T2 sequence (P10636 2-441 isoform P10636-8): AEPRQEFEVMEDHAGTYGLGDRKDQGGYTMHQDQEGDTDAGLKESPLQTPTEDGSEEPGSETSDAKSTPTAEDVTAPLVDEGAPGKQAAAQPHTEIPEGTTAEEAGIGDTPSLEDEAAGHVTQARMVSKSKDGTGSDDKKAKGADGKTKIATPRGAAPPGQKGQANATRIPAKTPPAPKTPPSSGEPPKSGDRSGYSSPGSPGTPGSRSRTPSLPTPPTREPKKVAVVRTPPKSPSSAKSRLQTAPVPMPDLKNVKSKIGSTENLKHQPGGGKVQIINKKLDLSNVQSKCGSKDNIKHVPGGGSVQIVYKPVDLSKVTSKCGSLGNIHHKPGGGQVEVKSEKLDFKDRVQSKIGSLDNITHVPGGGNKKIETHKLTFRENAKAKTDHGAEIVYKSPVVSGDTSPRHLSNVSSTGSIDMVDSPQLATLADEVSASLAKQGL

O=C(/C=C/c1ccc(O)c(O)c1)O[C@@H]1C[C@](O)(C(=O)O)C[C@@H](O)[C@H]1O [compound 2, Chlorogenic acid]
inhibition at 100 µM (amyloid-beta (Aβ) [1]): 97.7 ± 0.7%

O=c1c(O)c(-c2ccc(O)c(O)c2)oc2cc(O)cc(O)c12 [compound 5, Quercetin]
IC50 (amyloid-beta (Aβ) [2]): 10.3 ± 1.1 µM

O=C(O)/C=C/c1ccc(O)c(O)c1 [compound 4, Caffeic acid]
inhibition at 100 µM (amyloid-beta (Aβ) [1]): 99.4 ± 0.9%

CC1CC(c2ccc(O)c(O)c2)c2cc(O)c(O)cc21 (mixture of isomers) [compound 6, Phenylindane]
IC50 (amyloid-beta (Aβ) [3]): 42.1 ± 1.4 µM
inhibition at 100 µM (tau (tau40)): 95.2 ± 1.7%

From publication PMC6194148, “Phenylindanes in Brewed Coffee Inhibit Amyloid-Beta and Tau Aggregation” (Frontiers in Neuroscience, 2018)
